Patent US8304452B2, “Radical scavenger and active oxygen eliminating agent” (InBiotex Inc., priority 2005, dated 2012)

What was measured:
[1] = Superoxide anion-scavenging activity, xanthine/xanthine oxidase, lucigenin chemiluminescence (Example 3); type: biochemical; details: for Radical-scavenging ratio (%) (superoxide anion-scavenging activity): chemiluminescence AUC over 10 minutes, control = 100, mean, n=2
Experimental: In a 50 mM carbonate buffer (pH 10) containing 200 μM lucigenin, 100 μM xanthine and 1 mU/mL xanthine oxidase reacted together. The chemiluminescence level depending on the generated superoxide anion (O^2−) was assayed with BIOLUMAT (under trade name) (Model type LB 9505, manufactured by EG&G BERTHORD Company) for 10 minutes. The area under the curve indicating the total chemiluminescence over the 10 minutes was calculated. Defining the area under the curve for a group (control) added with PBS(−) instead of the test substance solution at the same amount as that of the solution as 100, the effect of N-β-alanyl-5-S-glutathionyl-3,4-dihydroxyphenylalanine (5-S-GAD) (Table 4) or Carnosine (under trade name) (Table 5) on the increase of chemiluminescence was examined. The suppressive activity thereof was defined as superoxide anion-scavenging activity (%) (mean, n=2; see Table 4, Table 5 and FIG. 3).

[2] = test system: human LDL; assay: Lipid peroxide-suppressing action: CuSO4-induced LDL oxidation, TBARS assay (Example 1); type: biochemical; details: for Amount of TBARS: 0.2 mg/mL LDL + 5 μM CuSO4, 37° C., 3 hours, mean, n=2
Experimental: As an action of capturing free group (free radical-scavenging action), the effect of N-β-alanyl-5-S-glutathionyl-3,4-dihydroxyphenylalanine (5-S-GAD) on LDL oxidation was examined. As controls, dopamine and Carnosine (under trade name; N-acetylcarnosine as the ingredient name) used as eye drops for cataract were used. LDL was prepared by a fractionation and centrifugation method. A fraction at a specific gravity of 1.019 to 1.063 g/mL in serum was defined as human LDL. 5 μM CuSO4, 5-S-GAD (3 to 100 μM) and N-acetyl-carnosine (100 μM to 10 mM) or L-carnosine (10 μM to 10 mM) were added to 0.2 mg/mL LDL, for incubation at 37° C. for 3 hours. After termination of the incubation, TBARS (a substance reactive with thiobarbituric acid) was assayed. Although the TBA reaction is a non-specific reaction, the reaction is used for a method of assaying various lipid peroxide products including malone dialdehyde. An experiment of peroxidation with copper sulfate was done twice (N=2). An aqueous solution containing 3.75 mg/mL thiobarbituric acid (TBA), 150 mg/mL trichloroacetic acid (TCA) and 0.25 N hydrochloric acid (HCl) was prepared as the TBA reagent, while tetramethoxypropane was used to prepare standard solutions (2, 5, 10, 20, 40 μM). 100 μL each of an LDL sample or a standard solution was added together with 200 μL of the TBA reagent into an Eppendorf tube (1.5 mL), which was then sealed with a cap for thorough mixing. After heating at 95° C. for 15 minutes, the resulting mixture was cooled in water and centrifuged at 3000 rpm for 5 minutes. The supernatant was assayed of the absorbance (535 nm). Based on the absorbance of the standard solutions, a standard curve was prepared. Based on the standard curve, the amount of TBARS in the LDL sample was calculated (in nmol/mg LDL protein) (mean, n=2, see Table 1 and FIG. 1).

NCCC(=O)N[C@@H](Cc1cc(O)c(O)c(SC[C@H](NC(=O)CC[C@H](N)C(=O)O)C(=O)NCC(=O)O)c1)C(=O)O [5-S-GAD, N-β-alanyl-5-S-glutathionyl-3,4-dihydroxyphenylalanine]
Radical-scavenging ratio (%) (superoxide anion-scavenging activity) ([1]; 0.1 μM added): −0.75% | Radical-scavenging ratio (%) (superoxide anion-scavenging activity) ([1]; 1 μM added): 26.03% | Radical-scavenging ratio (%) (superoxide anion-scavenging activity) ([1]; 10 μM added): 78.28% | Radical-scavenging ratio (%) (superoxide anion-scavenging activity) ([1]; 100 μM added): 91.19% | action for scavenging the superoxide anion (O^2−) (in words) ([1]; summary of Table 4, Table 5 and FIG. 3): strong actions for scavenging the superoxide anion (O^2−) | Amount of TBARS ([2]; 10 μM added): 85.683 nmol/mg LDL protein | Amount of TBARS ([2]; 30 μM added): 4.290 nmol/mg LDL protein | Amount of TBARS ([2]; 100 μM added): 2.649 nmol/mg LDL protein | anti-oxidation action, level relative to Carnosine (under trade name) ([2]; LDL oxidation, TBARS): 10 fold | anti-oxidation action, level relative to dopamine ([2]; LDL oxidation, TBARS): the same level as that of dopamine
